Assay results reported in US8653233B2, “Compositions and methods for preventing or treating cancer” (University of Nebraska Medical Center, priority 2003, dated 2014).
Where no end group is shown, it is not given here.

System: Panc02.MUC1 tumor cells
Assay: MUC1 cytoplasmic tail peptide vaccination and Panc02.MUC1 tumor challenge

Sequence: CQCRRKNYGQLDIFPARDTYHPMSEYPTYH (cysteine pairing not given here) [SEQ ID NO:47]
- survival (MUC1.Tg mice, three s.c. vaccinations at seven day intervals, Panc02.MUC1 challenge 10 days after final, vs control peptide or nonvaccinated, p<0.05): significant increase in survival
- autoimmunity in organs (necropsy and histology, vaccinated MUC1.Tg mice challenged with Panc02.MUC1): no evidence of autoimmunity
